Experiment [1] can be described thus: ABTS radical scavenging assay. The conditions noted are these: mean ± SD (n = 3); NA = not active (<50% radical scavenging activity at the highest testing concentration of 200 μM); read-out: ABTS free radical scavenging activity IC50.
Protocol: The antioxidant effect of the VBL constituents was assessed by besting their free radical scavenging activity with the ABTS (diammonium 2,2′-azino-bis (3-ethylbenzothiazoline-6-sulphonate) and DPPH (1,1-diphenyl-2-picrylhydrazyl) methods, according to the protocols described previously [10], and ascorbic acid was used as the positive control.
The nature of experiment [2]: DPPH radical scavenging assay. The conditions noted are these: mean ± SD (n = 3); NA = not active (<50% radical scavenging activity at the highest testing concentration of 200 μM); read-out: DPPH free radical scavenging activity IC50. How it is done: The antioxidant effect of the VBL constituents was assessed by besting their free radical scavenging activity with the ABTS (diammonium 2,2′-azino-bis (3-ethylbenzothiazoline-6-sulphonate) and DPPH (1,1-diphenyl-2-picrylhydrazyl) methods, according to the protocols described previously, and ascorbic acid was used as the positive control.
(The DPPH test is a chemical assay of radical scavenging.)

The subject of another experiment is PC12 cells. Briefly: Neuroprotective assay: 6-OHDA-induced PC12 cell injury, MTT. It counts as cell-based. The conditions noted are these: for Neuroprotective effect against 6-OHDA-induced PC12 cell injury (cell viability): pretreated 12 h, 6-OHDA 150 μM for 13 h. How it is done:
The cell cultures were prepared according to the method described by Sergi et al.. Briefly, the protection of compounds 1–8 on 6-hydroxydopamine (6-OHDA)-induced PC 12 cell injury was assessed by MTT (3-(4,5-dimethylthiazol-2-yl)-2,5-diphenyltetrazolium bromide) assay, and N-acetylcysteine (NAC, 50 μM) was used as the positive control. PC12 cells were cultured in RPMI 1640 medium supplemented with 10% fetal bovine serum (FBS), and they were incubated at 37
C in a humidified environment containing 5% CO2 and then cultured in 96-well plates at a density of 1.5 × 10^5 cells/well in 100 μL for 24 h. The neuron cells were first pretreated with various concentrations (25, 50, 100 μM) of tested compounds for 12 h before 6-OHDA (150 μM) treatment for further 13 h. Then, 10 μL of MTT was added to each well and incubated for another 4 h, and the crystals were dissolved with DMSO. The optical density at 490 nm was detected by a plate reader. The cell viability was lastly measured to evaluate the compounds’ protective effect, which was expressed as the percentage of the control group.

The test system of experiment [3] is NO production in RAW264.7 macrophages. Put plainly: NO production inhibitory assay, lipopolysaccharide-induced macrophages. It counts as cell-based. The conditions noted are these: Mus musculus, lipopolysaccharide-induced murine macrophages, read-out: NO production inhibition IC50. The method, then: The nitric oxide (NO) production inhibitory assay was conducted in murine RAW264.7 macrophages as we recorded in an early report, with quercetin as the reference compound.

Experimental findings from paper PMC9818789, “Identification of Small-Molecule Bioactive Constituents from the Leaves of Vaccinium bracteatum Confirms It as a Potential Functional Food with Health Benefits” (Foods, 2023) are described below.

By IC50 is commonly meant the point on the concentration scale where inhibition reaches its midpoint.

Take `O=C1O[C@H]([C@@H](O)CO)C(O)=C1O` [Ascorbic acid, ascorbic acid, reference compound]: the IC50 in experiment [1] was found to be 24.3 ± 0.41 µM; in experiment [2], 13.3 ± 1.86 µM.

For the molecule `COC1OC2CC3C(O)CC(COC(=O)C=Cc4ccc(O)cc4)(O2)C13` (stereo not shown) [Compound 1], the IC50 in experiment [1] was 15.3 ± 1.37 µM. For the same molecule, the “Neuroprotective effect compared with the positive control NAC” value in the experiment with PC12 cells (compound 50 μM, NAC 50 μM, 6-OHDA 150 μM) was “comparable to the positive control NAC”. The “Neuroprotective effect against 6-OHDA-induced PC12 cell injury (cell viability)” value (“Neuroprotective effect … (cell viability)” for short) in the experiment with PC12 cells (compound 50 μM) was “apparent protective activity”.

As to `CO[C@@H]1O[C@@H]2C[C@@H]3[C@H]1[C@@](COC(=O)/C=C\c1ccc(O)cc1)(C[C@H]3O)O2` [Compound 2], the IC50 in experiment [1] was 34.2 ± 3.03 µM.

For the molecule `O=C(/C=C/c1ccc(O)cc1)OC[C@@]12C[C@@H](O)[C@@H]3C[C@@H](O[C@@H](O)[C@@H]31)O2` [Compound 3], the IC50 in experiment [1] is 35.6 ± 1.04 µM.

`O=C(/C=C\c1ccc(O)cc1)OC[C@@]12C[C@@H](O)[C@@H]3C[C@@H](O[C@@H](O)[C@@H]31)O2` [Compound 4]: the IC50 in experiment [1] was 19.4 ± 0.24 µM.

Consider `COC1CC2C(O)CC(O)(COC(=O)C=Cc3ccc(O)cc3)C2C(OC)O1` (stereo not shown) [Compound 5], for which, in experiment [1], the half-inhibitory concentration (IC50) came out at 32 ± 1.76 µM. Further, the “Neuroprotective effect … (cell viability)” value in the experiment on PC12 cells (compound 50 μM) is “apparent protective activity”.

Take `NCCc1cc(O)c(O)cc1O` [Compound 6-OHDA, 6-hydroxydopamine, reference compound]: in the experiment with PC12 cells (6-OHDA at 150 μM), the “Inhibition ratio of PC12 cell viability (6-OHDA-induced cell injury)” value came out at 52.68%.

For `CO[C@H]1C[C@@H]2[C@H]([C@H](OC)O1)[C@@](O)(COC(=O)/C=C\c1ccc(O)cc1)C[C@H]2O` [Compound 6], the half-inhibitory concentration (IC50) in experiment [1] was determined as 28.2 ± 0.63 µM. For the same molecule, the “Neuroprotective effect … (cell viability)” value with PC12 cells (compound 50 μM) was “apparent protective activity”.

Take `CO[C@H]1C[C@H]2C=C[C@](O)(COC(=O)/C=C/c3ccc(O)cc3)[C@H]2[C@H](OC)O1` [Compound 7]: the concentration for half-maximal inhibition (IC50) in experiment [1] stood at 50.6 ± 2.97 µM. Moreover, the “Neuroprotective effect … (cell viability)” value in the experiment on PC12 cells (compound 50 μM) was “apparent protective activity”.

For `COC1CC2C(O)CC(O)(COC(=O)C=Cc3ccc(O)cc3)C2C(OC)O1` (stereo not shown) [Compound 8], the 50% inhibitory concentration (IC50) in experiment [1] worked out at 39.1 ± 2.3 µM.

For the molecule `COc1cc(CCCO)ccc1O[C@@H](CO)[C@H](O)c1cc(OC)c(O)c(OC)c1` [Compound 9a], the 50% inhibitory concentration (IC50) in experiment [1] came to 9.39 ± 0.97 µM; in experiment [2] it was 47.5 ± 7.24 µM.

Regarding `COc1cc(CCCO)ccc1O[C@H](CO)[C@@H](O)c1cc(OC)c(O)c(OC)c1` [Compound 9b], the concentration for half-maximal inhibition (IC50) in experiment [1] came out at 10.1 ± 0.67 µM; in experiment [2], 52.6 ± 6.89 µM.

`COc1cc([C@H](O)[C@@H](CO)Oc2ccc(CCCO)cc2OC)ccc1O` [Compound 10a, erythro-4,7,9,9′-tetrahydroxy-3,3′-dimethoxy-8,4′-oxyneolignane]: the half-maximal inhibitory concentration (IC50) in experiment [1] came to 19.7 ± 0.61 µM.

For the molecule `COc1cc([C@@H](O)[C@H](CO)Oc2ccc(CCCO)cc2OC)ccc1O` [Compound 10b, erythro-4,7,9,9′-tetrahydroxy-3,3′-dimethoxy-8,4′-oxyneolignane], the IC50 in experiment [1] came to 16.2 ± 2.65 µM.

As for `COc1cc([C@@H](O)[C@@H](CO)Oc2ccc(CCCO)cc2OC)ccc1O` [Compound 11a, threo-4,7,9,9′-tetrahydroxy-3,3′-dimethoxy-8,4′-oxyneolignane], the IC50 in experiment [1] is 12.1 ± 1.42 µM; in experiment [2] it was 98.7 ± 1.78 µM.

On to `COc1cc([C@H](O)[C@H](CO)Oc2ccc(CCCO)cc2OC)ccc1O` [Compound 11b, threo-4,7,9,9′-tetrahydroxy-3,3′-dimethoxy-8,4′-oxyneolignane], for which the IC50 in experiment [1] was 14.8 ± 1.25 µM; in experiment [2] it was 105 ± 4.11 µM.

`COc1cc([C@H]2Oc3c(O)cc(CCCO)cc3[C@@H]2CO)ccc1O` [Compound 12a, cedrusin]: the IC50 in experiment [1] turned out to be 9.54 ± 0.64 µM; in experiment [2], 31.2 ± 1.9 µM.

With `COc1cc([C@@H]2Oc3c(O)cc(CCCO)cc3[C@H]2CO)ccc1O` [Compound 12b, cedrusin], the half-maximal inhibitory concentration (IC50) in experiment [1] is 12.3 ± 0.24 µM; in experiment [2] it was 44.3 ± 2.05 µM.

For the molecule `COc1ccc([C@H]2Oc3c(O)cc(CCCO)cc3[C@@H]2CO)cc1OC` [Compound 13a, 4-O-methylcedrusin], the IC50 in experiment [1] came to 21.7 ± 3.5 µM.

With `COc1ccc([C@@H]2Oc3c(O)cc(CCCO)cc3[C@H]2CO)cc1OC` [Compound 13b, 4-O-methylcedrusin], the half-maximal inhibitory concentration (IC50) in experiment [1] stood at 37.1 ± 8.17 µM.

In the case of `COc1cc([C@@H]2Oc3c(OC)cc(CCCO)cc3[C@H]2CO)ccc1O` [Compound 14a, dihydrodehydrodiconiferyl alcohol], the concentration for half-maximal inhibition (IC50) stood at 12.3 ± 1.82 µM in experiment [1] and 52.2 ± 6.17 µM in experiment [3].

Consider `COc1cc([C@@H]2Oc3c(OC)cc(CCCO)cc3[C@H]2CO)ccc1O` [Compound 14b, dihydrodehydrodiconiferyl alcohol], for which the IC50 in experiment [1] amounted to 14.1 ± 1.3 µM.

Regarding `COc1cc([C@H]2Oc3c(OC)cc(CCCO)cc3[C@@H]2CO)cc(OC)c1O` [Compound 15a, 5-methoxydihydrodehydrodiconiferyl alcohol], the IC50 in experiment [1] came out at 17.2 ± 0.89 µM; in experiment [2] it was 40.4 ± 6.09 µM.

Take `COc1cc([C@@H]2Oc3c(OC)cc(CCCO)cc3[C@H]2CO)cc(OC)c1O` [Compound 15b, 5-methoxydihydrodehydrodiconiferyl alcohol]: the IC50 in experiment [1] is 24.2 ± 3.92 µM; in experiment [2], 55.1 ± 2.43 µM.

Turning to `COc1cc(C2c3c(cc(OC)c(O)c3OC)CC(CO)C2CO)cc(OC)c1O` (stereo not shown) [Compound 16a, polystachyol], the IC50 in experiment [1] turned out to be 11.1 ± 3.31 µM; in experiment [2], 47.9 ± 6.6 µM.

As to `COc1cc(C2c3c(cc(OC)c(O)c3OC)CC(CO)C2CO)cc(OC)c1O` (stereo not shown) [Compound 16b, polystachyol], the IC50 in experiment [1] is 26.2 ± 2.24 µM; in experiment [2], 96.2 ± 8.34 µM.

Take `COc1cc(C2OC(c3ccc(O)c(OC)c3)C(CO)C2CO)ccc1O` (stereo not shown) [Compound 17a, neo-olivil]: the IC50 amounted to 5.96 ± 0.3 µM in experiment [1] and 40.8 ± 5.98 µM in experiment [2].

As for `COc1cc(C2OC(c3ccc(O)c(OC)c3)C(CO)C2CO)ccc1O` (stereo not shown) [Compound 17b, neo-olivil], the results for the IC50 in experiment [1] and in experiment [2] were 7.75 ± 0.71 µM and 62.9 ± 5.65 µM, respectively.

On to `COc1cc(C2OC(c3cc(OC)c(O)c(OC)c3)C(CO)C2CO)cc(OC)c1O` (stereo not shown) [Compound 18a, icariol A2], for which the half-maximal inhibitory concentration (IC50) in experiment [1] is 6.87 ± 0.54 µM; in experiment [2], 17.3 ± 7.51 µM.

For the molecule `COc1cc(C2OC(c3cc(OC)c(O)c(OC)c3)C(CO)C2CO)cc(OC)c1O` (stereo not shown) [Compound 18b, icariol A2], the IC50 in experiment [2] is 17.9 ± 4.58 µM.

Take `COc1cc(CCCO)cc(OC)c1OC(CO)CO` [Compound 22, 3-deoxyartselaenin C]: the concentration for half-maximal inhibition (IC50) in experiment [1] turned out to be 168 ± 4.34 µM; in experiment [2] it was 20.2 ± 3.53 µM.
